Test system: Human neonatal epidermal keratinocytes (HEK)
Test: Evaluation of calcium influx in human neonatal epidermal keratinocytes (fluo 3-AM, confocal microscope)
Type: cell-based
Conditions: theanine 2.5 mM, theanine derivative 0.5 mM, 5 minutes, then fluo 3-AM 15 minutes, FIG. 4
Protocol: Stabilized human neonatal epidermal keratinocytes (HEK, Lonza, NHEK-Neo-Neonatal Normal Human Epidermal Keratinocytes, Pooled) are dispensed in a confocal dish at a density of 2×10^4 cells per well and treated with theanine (2.5 mM) and the theanine derivative (0.5 mM) for 5 minutes and then with […] fluo 3-AM for 15 minutes. The fluo 3 decomposed in the cells and combined with calcium is observed with a confocal microscope (Nikon, Japan) to measure the difference of fluorescence and evaluate the migration of calcium in the cells.

CCNC(=O)CC[C@H](N)C(=O)O [theanine]
migration of calcium in the cells: definitely different behaviors from each other

— patent publication US9192791B2, “Topical composition containing theanine derivatives for use on skin” (AMOREPACIFIC CORPORATION, priority 2011, dated 2015)
